Data: US4681899A, “Method of preventing the growth of malaria parasites in erythrocytes” (priority 1985, dated 1987)

What was measured:
sickle red cells = details: studies on sickle red cells; cited from earlier work
p. Vinckei = test: in vivo efficacy in mice infected with p. Vinckei (FIG. 4); details: oral, 3 mg/kg body weight
Description: Mice: Four to eight-week-old BALB/C male and female mice from a breeding colony were used.
Parasite: Stabilates of p. Vinchei TCC 30091) and p. Falciparum (FCR-3 knobless) were used.
In vivo method: The tail vein was nicked and a blood droplet was smeared.
The smears were stained with Giemsa, infected erythrocytes (which contain trophozoite and schizont stage parasites) were counted and percent parasitemia estimated.
Approximately 10^5 p. Vinchei parasites were injected intraperitoneally (I.P.) into a donor mouse and at the time of ascending parasitemia, the infected mouse was exsanguinated and red blood cells are prepared for in vivo experimentation.
(§1) A control and a drug concentration (approximately 3 mg/kg body weight/day) were provided orally via drinking water. Water containing drugs were prepared daily. Water intake were monitored daily to insure proper dosage and hydration levels. A commercial food pellet were provided ad libitum.
To each mouse, 10^6 parasitized red blood cells were injected I.P., and daily blood samples were collected from the tail vein to monitor the levels of parasitemia.
Five mice were used for each group tested.
During the experimentation, we monitored both the percent parasitemia and percent survival rate of each experimental group.
Using p. Vinckei and a mice model, Ohnishi has also tested the efficacy of W-7.

mice [1] = details: oral administration; cited from earlier work
mice [2] = test: side effects in mice at 3 mg/kg/day orally; type: in vivo
Description: as §1
Ohnishi tested an in vivo efficacy of these drugs using mice infected by p. Falciparum.

p. Falciparum = test: in vivo efficacy in mice infected by p. Falciparum (FIG. 3); details: 3 mg/kg/day orally
beta-adrenergic = details: cited from earlier work
man = details: adults; mixture of l-form and d-form; cited from earlier work

For `NCCCCCCNS(=O)(=O)c1cccc2c(Cl)cccc12` [W-7], the “effect on red cell metabolism and cell sickling” value (sickle red cells) is given as “altered the red cell metabolism and thus affected the cell sickling”, the “life span after infection” value (p. Vinckei) is given as “extended their life span after infection” and the “suppression of the growth of parasites” value (p. Vinckei) is given as “suppressed the growth of parasites”. The “acute LD50” value (mice [1]) was 75 mg/kg.

For `C=CCc1ccccc1OCC(O)CNC(C)C` (stereo not drawn) [alprenolol], the “effect on red cell metabolism and cell sickling” value (sickle red cells) is listed as “altered the red cell metabolism and thus affected the cell sickling”.

For `CC(C)NC[C@@H](O)COc1cccc2ccccc12` [d-propranolol], the side effect (mice [2]) is given as “no side effect was observed”, the “inhibition of the growth of parasites in mice” value (p. Falciparum) is given as “effectively inhibited the growth of parasites in mice” and the “beta-adrenergic blocker activity of the form” value (beta-adrenergic) is given as “inactive beta-adrenergic blocker”.

In the case of `C=CCc1ccccc1OC[C@@H](O)CNC(C)C` [l-alprenolol], the “acute LD50” value (mice [1]) is given as 278 mg/kg.

In the case of `CC(C)NC[C@H](O)COc1cccc2ccccc12` [l-propranolol], the side effect (mice [2]) is listed as “no side effect was observed”, the “inhibition of the growth of parasites in mice” value (p. Falciparum) is listed as “effectively inhibited the growth of parasites in mice” and the “beta-adrenergic blocker activity of the form” value (beta-adrenergic) is listed as “active beta-adrenergic blocker”.

For `CC(C)NCC(O)COc1cccc2ccccc12` (stereo not drawn) [propranolol], the “effect on red cell metabolism and cell sickling” value (sickle red cells) is given as “altered the red cell metabolism and thus affected the cell sickling”, the “usual effective dose in man as an anti-hypertensive drug (daily)” value (man) is given as 160-480 mg daily and the “usual effective dose in man as an anti-hypertensive drug (per body weight)” value (man) is given as 3-8 mg/kg body weight/day.
